From publication PMC12392461, “Beyond Estrogenicity: A Comparative Assessment of Bisphenol A and Its Alternatives in In Vitro Assays Questions Safety of Replacements” (Environmental Science & Technology, 2025)
“Also recorded” adds a separate entry of the source. Where two headings read alike, the source gives them in different places.

Columns and labels:
[1] = set-up: method as in Soto et al.; details: ref Soto et al.; cited from earlier work
MCF-7 cells = tested on: MCF-7 cells; set-up: method as in Singh et al. 2024; details: ref Singh et al. 2024; cited from earlier work
[2] = Stability in PBS (pH 7.4, 37 °C, 48 h)
Method: We tested the stability of all BPA alternatives and BPA in 0.1mM PBS (pH 7.4) for 48h at 37° C except for TMCD prior to the bioassay experiments. The experiment was performed as follows: 500 µL of a 2 mg/L solution of the chemical in PBS was aliquoted into 3 HPLC vials (n=3) and incubated for 48 h at 37 °C. The 2 mg/L solution was prepared by diluting the respective 10 g/L stock solution in a 10 mL glass crimp vial with an aluminum cap. For HPLC analysis, 500 µL acetonitrile was added prior to injection.
We have not tested stability of TMCD in aqueous media because we lacked a suitable […]
Figure S2: Detection of Bisphenol alternatives after 48 h incubation in 0.1mM PBS pH 7.4. Each data point represents the mean percentage with error bars indicating standard error of mean (SEM) of n=3 replicates.
S2: Cell culture and bioassays
S2.1: Cell Culturing Conditions
All suppliers and sources are given in detail in SI-Excel S3. The bioassay media for the different assays were prepared as follows: Assay medium for ER alpha-UAS-bla GripTite (ERα) and PPAR gamma-UAS-bla 293H (PPARγ) was prepared with 98% Opti-MEM, supplemented with 2% charcoal-stripped FBS, and 100 U/mL penicillin-streptomycin. MitoOxTox and AhR assay medium was comprised of 90% DMEM with GlutaMAX, supplemented with 10% FBS, and 100 U/mL penicillin-streptomycin. Neurotoxicity assay medium consisted of the neurobasal […]
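Wherever REPBPA is given: published Tox21 results reanalysed with a revised model predicting baseline toxicity.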
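Wherever SRbaseline is given: published Tox21 results reanalysed with a revised model predicting baseline toxicity.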

From the text for Tox21 assays: We also reanalyzed the Tox21 data of Adamovsky et al. with the updated baseline toxicity prediction model (Table S2).

SMILES: Cc1cc(Cc2cc(C)c(O)c(C)c2)cc(C)c1O [TMBPF, Bis(3,5-dimethyl-4-hydroxyphenyl)methane]
- estrogenicity in vivo [1]: nonestrogenic in vivo
- estrogenicity in MCF-7 cells (MCF-7 cells): inactive in estrogenicity assays using MCF-7 cells

SMILES: CC(C)(c1ccc(OCC2CO2)cc1)c1ccc(OCC2CO2)cc1 (centres unmarked) [BADGE, Bisphenol A diglycidyl ether]
- stability in phosphate-buffered saline [2]: unstable in aqueous solution; also recorded: lower parent concentration and potential contributions from hydrolysis products

SMILES: CC(C)(c1cc(Br)c(O)c(Br)c1)c1cc(Br)c(O)c(Br)c1 [TBBPA, 3,3',5,5'-Tetrabromobisphenol A]
- REPBPA (Tox21 assays): 29.73
- SRbaseline (Tox21 assays): 90.68
- REPBPA (Tox21 assays; ATG_PPARg_TRANS_up, Relative Effect Potency): 3.44
- SRbaseline (Tox21 assays; ATG_PPARg_TRANS_up, Specificity Ratio): 12.11
- REPBPA (Tox21 assays; ATG_hPPARg_XSP1_up, Relative Effect Potency): 2.58
- SRbaseline (Tox21 assays; ATG_hPPARg_XSP1_up, Specificity Ratio): 11.21
- REPBPA (Tox21 assays; ATG_hPPARg_XSP2_up, Relative Effect Potency): 6.45
- SRbaseline (Tox21 assays; ATG_hPPARg_XSP2_up, Specificity Ratio): 28.04
